Data as given in ChEMBL document CHEMBL1147051, “Coupling substrate and ion binding to extracellular gate of a sodium-dependent aspartate transporter” (Nature, 2007).
The source made the active and inactive calls. The rule behind the calls is not given here.

What was measured:
[1] = Binding affinity to Pyrococcus horikoshii sodium-coupled aspartate transporter
Pyrococcus horikoshii = test: Inhibition of [3H]L-aspartate uptake at Pyrococcus horikoshii sodium-coupled aspartate transporter in presence of thallium
[2] = Binding affinity to Pyrococcus horikoshii sodium-coupled aspartate transporter by isothermal titration calorimetry in presence of NaCl
[3] = biological target: Glutamate transporter homolog (Pyrococcus horikoshii (strain ATCC 700860 / DSM 12428 / JCM 9974 /NBRC 100139 / OT-3), UniProt O59010, D405N); test: Binding affinity to Pyrococcus horikoshii sodium-coupled aspartate transporter D405N mutant in presence of NaCl
Sequence of Glutamate transporter homolog (O59010 whole entry D405N): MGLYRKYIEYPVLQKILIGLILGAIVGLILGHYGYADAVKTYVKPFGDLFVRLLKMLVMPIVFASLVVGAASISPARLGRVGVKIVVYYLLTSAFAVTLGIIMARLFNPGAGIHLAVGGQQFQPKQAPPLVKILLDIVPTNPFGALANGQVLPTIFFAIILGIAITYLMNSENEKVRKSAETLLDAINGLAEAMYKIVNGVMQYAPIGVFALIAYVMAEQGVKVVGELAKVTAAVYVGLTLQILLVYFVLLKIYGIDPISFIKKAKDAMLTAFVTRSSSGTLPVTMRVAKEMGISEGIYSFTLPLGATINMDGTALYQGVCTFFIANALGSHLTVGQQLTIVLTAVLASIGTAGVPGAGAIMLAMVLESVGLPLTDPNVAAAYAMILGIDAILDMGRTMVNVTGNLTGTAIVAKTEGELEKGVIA

Structure (SMILES) | Kd [1] | other results
N[C@H](CCC(=O)O)C(=O)O [D-GLUTAMATE] | 162 µM | 
N[C@@H](CC(=O)O)C(=O)O [ASPARTIC ACID] |  | Activity (Pyrococcus horikoshii): inactive; Kd [2]: 0.094 µM
N[C@H](CC(=O)O)C(=O)O [D-ASPARTATE] | 0.009 µM | 
N[C@@H](CS(=O)O)C(=O)O | 0.02 µM | 
O=C(O)CCC(=O)O [SUCCINIC ACID] | 1450 µM | 
N[C@@H](CO)C(=O)O [SERINE] | 160 µM | 
N[C@@H](CCC(=O)O)C(=O)O [GLUTAMIC ACID] | 122 µM | 
NC(C(=O)O)C(OCc1ccccc1)C(=O)O (racemic) |  | Kd [3]: 0.1 µM
